The source of these data is patent publication US20090099192A1, “Substituted 1H-pyrrole-2,5-diones” (Bayer CropScience AG, priority 2004, published 2009).

The data set can be described thus: logP determination by HPLC on reversed-phase column (C 18), EEC Directive 79/831 Annex V.A8. The data set is classed as physicochemical. The conditions noted are these: reversed-phase C 18, 43° C., acid range (0.1% aqueous phosphoric acid, acetonitrile), marked a). The protocol: a) The logP values given in table 1 were determined in accordance with EEC Directive 79/831 Annex V.A8 by HPLC (High Performance Liquid Chromatography) on a reversed-phase column (C 18). Temperature: 43° C. (a) Mobile phases for the determination in the acid range: 0.1% aqueous phosphoric acid, acetonitrile; linear gradient from 10% acetonitrile to 90% acetonitrile—corresponding measurement results are marked a) in table 1. Calibration was carried out using unbranched alkan-2-ones (having 3 to 16 carbon atoms) with known logP values (determination of the logP values by the retention times using linear interpolation between two successive alkanones).

As for `O=C1C(O)=C(c2ccc(OC(F)(F)F)cc2)C(=O)N1Cc1ccccc1F` [Example 97], the logP result is given as “logP = 3.83^a)”.

Take `N#Cc1ccc(C2=C(O)C(=O)N(Cc3ccccc3F)C2=O)cc1` [Example 98]: the logP entry is listed as “logP = 2.31^a)”.

Consider `O=C1C(O)=C(c2ccc(Cl)cc2)C(=O)N1Cc1ccccc1F` [Example 99], for which the logP entry is listed as “logP = 3.56^a)”.

Regarding `O=C1C(O)=C(c2ccc(C(F)(F)F)cc2)C(=O)N1Cc1ccccc1F` [Example 100], the logP result was “logP = 3.40^a)”.

For the compound `O=C1C(O)=C(c2cccc(OC(F)(F)F)c2)C(=O)N1Cc1ccccc1F` [Example 101], the logP result is “logP = 3.64^a)”.

Consider `O=C1C(O)=C(c2cc(Cl)cc(Cl)c2)C(=O)N1Cc1ccccc1F` [Example 102], for which the logP entry was “logP = 3.48^a)”.

With `Cc1ccc(C2=C(O)C(=O)N(Cc3ccccc3F)C2=O)cc1` [Example 103], the logP entry was “logP = 3.51^a)”.

With `Cc1cc(C)c(C2=C(O)C(=O)N(Cc3c(F)cccc3F)C2=O)c(C)c1` [Example 104], the logP result is “logP = 3.48^a)”.

On to `O=C1C(O)=C(c2cc(Cl)cc(Cl)c2)C(=O)N1Cc1c(F)cccc1F` [Example 109], for which the logP result is “logP = 3.20^a)”.

`O=C1C(O)=C(c2ccccc2F)C(=O)N1Cc1cc(Cl)cc(Cl)c1` [Example 110]: the logP entry is “logP = 3.56^a)”.

As to `O=C1C(O)=C(c2ccccc2Cl)C(=O)N1Cc1cc(Cl)cc(Cl)c1` [Example 111], the logP entry is “logP = 3.67^a)”.

`O=C1C(O)=C(c2cccc(C(F)(F)F)c2)C(=O)N1Cc1cc(Cl)cc(Cl)c1` [Example 112]: the logP entry is listed as “logP = 4.27^a)”.

Consider `O=C1C(O)=C(c2ccc(OC(F)(F)F)cc2)C(=O)N1Cc1cc(Cl)cc(Cl)c1` [Example 113], for which the logP result was “logP = 4.67^a)”.

Consider `N#Cc1ccc(C2=C(O)C(=O)N(Cc3cc(Cl)cc(Cl)c3)C2=O)cc1` [Example 114], for which the logP result was “logP = 2.94^a)”.

As for `O=C1C(O)=C(c2ccc(Cl)cc2)C(=O)N1Cc1cc(Cl)cc(Cl)c1` [Example 115], the logP result was “logP = 4.48^a)”.

Consider `O=C1C(O)=C(c2ccc(C(F)(F)F)cc2)C(=O)N1Cc1cc(Cl)cc(Cl)c1` [Example 116], for which the logP result was “logp = 4.18^a)”.

Take `O=C1C(O)=C(c2cccc(OC(F)(F)F)c2)C(=O)N1Cc1cc(Cl)cc(Cl)c1` [Example 117]: the logP entry is listed as “logP = 4.45^a)”.

Regarding `O=C1C(O)=C(c2cc(Cl)cc(Cl)c2)C(=O)N1Cc1cc(Cl)cc(Cl)c1` [Example 118], the logP result is given as “logP = 4.21^a)”.

For the compound `Cc1ccc(C2=C(O)C(=O)N(Cc3cc(Cl)cc(Cl)c3)C2=O)cc1` [Example 119], the logP result was “logp = 4.42^a)”.

`Cc1ccc(-c2ccc(Cl)cc2)cc1C1=C(O)C(=O)N(C(C)c2ccc(Cl)cc2)C1=O` (stereo not shown) [Example 120]: the logP entry is “logP = 4.94^a)”.

For the compound `Cc1ccc(-c2ccc(Cl)cc2)cc1C1=C(O)C(=O)N(Cc2ccc(Cl)cc2Cl)C1=O` [Example 121], the logP entry is listed as “logP = 5.03^a)”.

As to `Cc1ccc(-c2ccc(Cl)cc2)cc1C1=C(O)C(=O)N(C(C)C)C1=O` [Example 122], the logP result is “logP = 4.08^a)”.

With `Cc1ccc(-c2ccc(Cl)cc2)cc1C1=C(O)C(=O)N(Cc2cccc(Cl)c2)C1=O` [Example 123], the logP entry was “logP = 4.61^a)”.

With `Cc1ccc(-c2ccc(Cl)cc2)cc1C1=C(O)C(=O)N(c2c(F)cccc2F)C1=O` [Example 124], the logP entry is recorded as “logP = 3.85^a)”.

For `Cc1ccc(-c2ccc(Cl)cc2)cc1C1=C(O)C(=O)N(CC2CC2)C1=O` [Example 125], the logP result is reported as “logP = 4.08^a)”.

As for `Cc1ccc(-c2ccc(Cl)cc2)cc1C1=C(O)C(=O)N(c2ccc(Cl)cc2Cl)C1=O` [Example 126], the logP result is recorded as “logP = 4.51^a)”.

As to `Cc1ccc(-c2ccc(Cl)cc2)cc1C1=C(O)C(=O)N(c2c(Cl)cc(Cl)cc2Cl)C1=O` [Example 127], the logP entry is reported as “logP = 4.75^a)”.

On to `Cc1ccc(-c2ccc(Cl)cc2)cc1C1=C(O)C(=O)N(Cc2cccc(C(F)(F)F)c2)C1=O` [Example 128], for which the logP entry is given as “logP = 4.65^a)”.

`Cc1ccc(-c2ccc(Cl)cc2)cc1C1=C(O)C(=O)N(c2ccccc2Cl)C1=O` [Example 129]: the logP result is reported as “logP = 4.03^a)”.

For the compound `Cc1ccc(-c2ccc(Cl)cc2)cc1C1=C(O)C(=O)N(Cc2ccccc2OC(F)(F)F)C1=O` [Example 133], the logP entry is reported as “logP = 4.75^a)”.

As for `Cc1ccc(-c2ccc(Cl)cc2)cc1C1=C(O)C(=O)N(Cc2ccc(OC(F)(F)F)cc2)C1=O` [Example 134], the logP result is listed as “logP = 4.84^a)”.

Turning to `Cc1ccc(-c2ccc(Cl)cc2)cc1C1=C(O)C(=O)N(c2c(Cl)cccc2Cl)C1=O` [Example 135], the logP entry was “logP = 4.18^a)”.

On to `Cc1ccc(-c2ccc(Cl)cc2)cc1C1=C(O)C(=O)N(C(C)(C)C)C1=O` [Example 137], for which the logP entry is given as “logP = 4.51^a)”.

Regarding `Cc1ccc(-c2ccc(Cl)cc2)cc1C1=C(O)C(=O)N(CC(C)(C)C)C1=O` [Example 138], the logP entry is reported as “logP = 4.61^a)”.

Regarding `Cc1ccc(-c2ccc(Cl)cc2)cc1C1=C(O)C(=O)N(Cc2cc(Cl)ccc2Cl)C1=O` [Example 139], the logP result was “logP = 4.84^a)”.

As for `Cc1ccc(-c2ccc(Cl)cc2)cc1C1=C(O)C(=O)N(Cc2c(Cl)cccc2Cl)C1=O` [Example 140], the logP entry is recorded as “logP = 4.70^a)”.

Regarding `Cc1ccc(-c2ccc(Cl)cc2)cc1C1=C(O)C(=O)N(C(C)(C)c2ccccc2Cl)C1=O` [Example 142], the logP result is given as “logP = 4.80^a)”.

As to `Cc1ccc(-c2ccc(Cl)cc2)cc1C1=C(O)C(=O)N(C(C)(C)c2cccc(Cl)c2)C1=O` [Example 143], the logP entry is given as “logP = 4.99^a)”.

For the compound `N#Cc1ccc(C2=C(O)C(=O)N(c3ccc(C(F)(F)F)cc3F)C2=O)cc1` [Example 144], the logP result was “logP = 6.09^a)”.

For `Cc1ccc(-c2ccc(Cl)cc2)cc1C1=C(O)C(=O)N(c2ccccc2F)C1=O` [Example 145], the logP entry is on record as “logP = 4.94^a)”.

`Cc1ccc(-c2ccc(Cl)cc2)cc1C1=C(O)C(=O)N(c2cc(F)ccc2F)C1=O` [Example 146]: the logP result is on record as “logP = 4.51^a)”.

Consider `CCOC(=O)C1CCCC(N2C(=O)C(O)=C(c3ccccc3Cl)C2=O)C1` (stereo not shown) [Example 150], for which the logP entry was “logP = 3.01^a)”.

`CCCCOC1CCCC(N2C(=O)C(O)=C(c3ccccc3Cl)C2=O)C1` (stereo not shown) [Example 152]: the logP result is recorded as “logP = 3.70^a)”.

`CCCCOC1CCCC(N2C(=O)C(O)=C(c3ccccc3Cl)C2=O)C1` (stereo not shown) [Example 153]: the logP entry is listed as “logP = 4.09^a)”.

Regarding `O=C1C(O)=C(c2ccccc2Cl)C(=O)N1C1CCOCC1` [Example 154], the logP entry is “logP = 1.94^a)”.

Turning to `CC(C)(C)OC(=O)N1CCCC(N2C(=O)C(O)=C(c3ccccc3Cl)C2=O)C1` (stereo not shown) [Example 155], the logP result was “logP = 3.18^a)”.

For the compound `CC(C)(C)C(=O)OC1=C(c2ccccc2Cl)C(=O)N(C2CCOCC2)C1=O` [Example 156], the logP result was “logP = 3.87 ^a)”.

`N#CC1(N2C(=O)C(O)=C(c3ccccc3Cl)C2=O)CCCCC1` [Example 157]: the logP result is reported as “logP = 2.72^a)”.

Take `CC1CCCC(C#N)(N2C(=O)C(O)=C(c3ccccc3Cl)C2=O)C1` (stereo not shown) [Example 158]: the logP entry was “logP = 3.06^a)”.

Take `CC1CC(N2C(=O)C(O)=C(c3ccccc3Cl)C2=O)CC(C)(C)C1` (stereo not shown) [Example 159]: the logP result is “logP = 4.18^a)”.

Take `CC1(C)CC(N2C(=O)C(O)=C(c3ccccc3Cl)C2=O)CC(C)(C)C1` [Example 160]: the logP result is reported as “logP = 4.41^a)”.

`O=C1C(O)=C(c2ccccc2Cl)C(=O)N1C12CC3CC(CC(C3)C1)C2` [Example 161]: the logP entry is recorded as “logP = 4.20^a)”.

As for `CC1CCCC(N2C(=O)C(O)=C(c3ccccc3Cl)C2=O)C1` (stereo not shown) [Example 162], the logP entry is on record as “logP = 3.57^a)”.

Turning to `CC1CCCC(N2C(=O)C(O)=C(c3ccccc3Br)C2=O)C1` (stereo not shown) [Example 163], the logP result is recorded as “logP = 3.61^a)”.

On to `O=C1C(O)=C(c2ccccc2Cl)C(=O)N1c1ncc(C(F)(F)F)s1` [Example 164], for which the logP result is “logP = 3.14^a)”.

On to `COC(=O)C1(N2C(=O)C(O)=C(c3ccccc3Cl)C2=O)CCCCC1` [Example 165], for which the logP entry is “logP = 3.10^a)”.

As to `COC(=O)C1(N2C(=O)C(O)=C(c3ccccc3Cl)C2=O)CCCC(C)C1` (stereo not shown) [Example 166], the logP entry was “logP = 3.48^a)”.

For `CCOC(=O)C1(N2C(=O)C(O)=C(c3ccccc3Cl)C2=O)CCCCC1` [Example 167], the logP entry is given as “logP = 3.40^a)”.

For the compound `CCOC(=O)C1(N2C(=O)C(O)=C(c3ccccc3Cl)C2=O)CCCC(C)C1` (stereo not shown) [Example 168], the logP entry was “logP = 3.78^a)”.

For `CCOC(=O)C1(N2C(=O)C(OC(=O)C(C)(C)C)=C(c3ccccc3Cl)C2=O)CCCCC1` [Example 169], the logP entry is listed as “logP = 5.50^a)”.

As to `CCOC(=O)C1(N2C(=O)C(OC(=O)C(C)(C)C)=C(c3ccccc3Cl)C2=O)CCCC(C)C1` (stereo not shown) [Example 170], the logP result is recorded as “logP = 5.85^a)”.

`CC1CCCC(C#N)(N2C(=O)C(OC(=O)C(C)(C)C)=C(c3ccccc3Cl)C2=O)C1` (stereo not shown) [Example 171]: the logP result is given as “logP = 5.01^a)”.

Consider `CCOc1cccc(F)c1CN1C(=O)C(O)=C(c2ccc(C#N)cc2)C1=O` [Example 172], for which the logP entry is “logP = 2.61^a)”.

In the case of `CCOC(=O)C1CCCCC1N1C(=O)C(O)=C(c2c(C)cc(-c3ccc(Cl)cc3)cc2C)C1=O` (stereo not shown) [Example 174], the logP entry is “logP = 4.87^a)”.

For `CC1CCCC(N2C(=O)C(O)=C(c3cccc(C(F)(F)F)c3)C2=O)C1` (stereo not shown) [Example 175], the logP entry is on record as “logP = 4.56^a)”.

As to `CCOC(=O)CCN1C(=O)C(O)=C(c2ccccc2Cl)C1=O` [Example 177], the logP entry is listed as “logP = 2.21^a)”.

For the compound `CCOC(=O)CCN1C(=O)C(O)=C(c2cccc(OC(F)(F)F)c2)C1=O` [Example 178], the logP entry was “logP = 3.95^a)”.
